We go through 2 molecules from US20250144128A1, “CANCER TREATMENT” (Nucana plc, priority 2022, published 2025).

For data set [1], the system named is adenosine deaminase (ADA). The following applies: inactive metabolite 3′-deoxyinosine; Tsai et al. 2010; cited from earlier work.
Data set [2] concerns exosomal PD-L1. Briefly: exosomal PD-L1 in plasma of patients treated with NUC-7738 (capillary-based immune probing, PD-L1/CD81). The data set is classed as in vivo, human. The following applies: plasma exosomes; for PD-L1/CD81 values: 24 h Post C1. As for the experimental part:
Patients were treated with NUC-7738 on days 1 and 8 of a 14-day cycle. Patient plasma samples were collected pre-dose, 24 hr after NUC-7738 dosage and the 24 hours post Cycle 2 (that is the second occasion at which patients received treatment).
Patient plasma samples were centrifuged at 3000×g for 15 minutes to remove cellular debris. Then, the supernatant was aliquoted in 250 μL measures and stored in−80° C. freezers. For exosomal isolation ExoQuick® ULTRA EV Isolation Kit for Serum and Plasma (System Biosciences Cat #EQULTRA-20A-1) according to manufacturer's protocol. In brief, 250 μL of plasma samples free of cellular debris was used and 67 μL ExoQuick Solution was added, followed by a 30 minute incubation period at 4° C. After that, the plasma sample and ExoQuick Solution mixture were centrifuged at 3000×g for 10 minutes. Then, carefully without disturbing the pellet, all of the supernatant was aspirated off, making sure no residual traces remained. Next, the pellet was resuspended in Buffer B provided, followed by the addition of Buffer A. The samples was homogenised in the buffer by carefully pipetting up and down until no clumps of the pellet were seen. The resin purification columns were conditioned by removing the storage buffer and washing it with Buffer B. The samples were added to the conditioned purification column and centrifuged at 1000×g for 30 seconds. The eluted samples were quantified for protein concentration using Qubit™ Protein and Protein Broad Range (BR) Assay Kits (Thermofisher Cat #A50668). Samples were then aliquoted according to the required amounts for the downstream applications and stored −80° C.
Analysis of PD-L1 expression in exosomes isolated from plasma samples was carried out using automated western blotting JESS system (BioTechne, ProteinSimples). The 12-230 kDa Separation Module of 25 capillaries kit (ProteinSimple, Cat #SM-W004) was used per manufacture protocol. Briefly, samples were prepared at the appropriate concentration using the kit master-mix and sample dilution buffer containing DT, samples were then denatured for 5 minutes at 95° C. All samples, primary antibodies and secondary antibodies were loaded into the plate provided. Anti-CD81 antibody [M38] (Abcam, Cat #ab79559) diluted at 1:100 and PD-L1 (E1L3N®) XP® Rabbit mAb (Cell Signalling, Cat #13684) diluted at 1:50 were used. Secondary antibodies used were from the anti-mouse chemiluminescence (ProteinSimple, Cat #DM002) and anti-rabbit near-infrared (NIR) (ProteinSimple, Cat #DM007) detection module, they were used at recommended dilution. The prepared plates and capillaries were then loaded onto the JESS, and sample run at the defaults settings. The expression was determined by the area under the curve using Compass Software v 6.1 (ProteinSimple).

The subject of data set [3] is A375 melanoma or A549 lung cancer cell lines. Briefly: mRNA decrease in the cell line studies (RT-qPCR), cell line not specified. The conditions noted are these: NUC-7738 10 uM vs DMSO. The data set is classed as cell-based. The procedure: (§1) A375 melanoma cell lines and A549 lung cancer cell lines were treated with solvent-control DMSO or NUC-7738 (10 uM) for 72 hours, after which media supernatants were collected for either soluble PD-L1 analysis or EV isolation. In addition, adherent cells were collected for RNA and protein isolation.
To determine RNA expression of soluble transcript, cells were lysed and RNA isolated using the RNAeasy Kit (Qiagen, Cat #74136). This was then followed by RNA reverse transcription into cDNA using QuantiNova Reverse Transcription Kit (Qiagen, Cat #205413). Primers for each gene were designed using PrimerQuest™ (Integrated DNA Technologies) and ordered at 100 uM concentrations from IDT. The soluble PD-L1 transcript primer was designed to create an amplicon of about 100 bp size crossing the exon 4 and intron 4 junction.
RT-qPCR was carried out using the qPCRBIO SyGreen MasterMix kit (PCRBiossystems Cat #PB20.14-50) and the Rotor qene Q qPCR machine (Qiagen). Ct values were analysed using the Rotor qene Q Software. Fold change were calculated using the AACt values.
(Quantitative PCR measures a nucleic acid by following its amplification.)

Data set [4] has as its system exosomal PD-L1. Briefly: exosomal PD-L1 in plasma of patients treated with NUC-7738 (capillary-based immune probing, PD-L1/CD81). The class given is in vivo, human. The conditions noted are these: for PD-L1/CD81 values: plasma exosomes, Pre C2 (15 days after initial cycle).
In data set [5] the test system is ExoPD-L1, A375 melanoma or A549 lung cancer cell lines. Briefly: ExoPD-L1 protein in exosomes from the cell line studies. The following applies: NUC-7738 10 uM vs DMSO. The data set is classed as cell-based. The procedure:
For Extracellular Vesicle (EV, exosome) preparation, cells were cultured in T175 Nunc™ EasYFlask™ Cell Culture Flasks (ThermoFisher Cat #159910), approximately 50×10^6 cells. Cells were grown in DMEM, high glucose, GlutaMAX™ Supplement (ThermoFisher Cat #10566016) supplemented with 5% exosome free FBS and 1% Penicillin-Streptomycin (ThermoFisher Cat #15070063).
as §1
Isolation of exosomes from in-vitro samples involved growing cells in 5 separate T175 Nunc™ EasYFlask™ Cell Culture Flasks (ThermoFisher Cat #159910) which approximated to 50×10^6 cells. Cells were grown in DMEM, high glucose, GlutaMAX™ Supplement (ThermoFisher Cat #10566016) in addition, this was supplemented with exosome free FBS. […]
Analysis of PD-L1 expression in exosomes isolated from plasma samples was carried out using automated western blotting JESS system (BioTechne, ProteinSimples). […] The expression was determined by the area under the curve using Compass Software v 6.1 (ProteinSimple).

Data set [6] has as its system sPD-L1, A375 melanoma or A549 lung cancer cell lines. Briefly: sPD-L1 in media supernatant in the cell line studies (sandwich ELISA), cell line not specified. The following applies: NUC-7738 10 uM vs DMSO. The class given is cell-based. The procedure: For sPDL1 analysis, a similar process was undertaken. Cells were grown in Corning® 100 mm TC-treated Culture Dish with DMEM, high glucose, GlutaMAX™ Supplement (ThermoFisher Cat #10566016) supplemented with 10% FBS and 1% Penicillin-Streptomycin (ThermoFisher Cat #15070063), with approximately 2×10^6 cells.
as §1
Patient plasma samples were centrifuged at 3000×g for 15 minutes to remove cellular debris. […]
For quantitative measurement of soluble PD-L1 in patient and in-vitro samples Quantikine® ELISA Human/Cynomolgus Monkey PD-L1/B7-H1 Immunoassay (R&D Systems Cat. #DB7H10) was used as per manufacturers recommendation. […]
In brief, the protocol included the preparation of the standard curve from the Human/Cynomolgus Monkey PD-L1/B7-H1 protein standard ranging from […]. […] The wells were read using a microplate reader set to 450 nm and 540 nm for wavelength correction to determine the optical density.
Analysis of the results included subtracting the 540 nm readings from 450 nm reading and subtracting blank, diluent only, sample readings. […]

Where [7] appears, read: patient 001-002, Pre C1 (untreated) 0.044.
The mark [8] stands for this setting: patient 001-019, Pre C1 (untreated) 0.039.
[9] abbreviates: patient 002-002, Pre C1 (untreated) 0.035.
Setting [10] is: patient 003-008, Pre C1 (untreated) 0.045.

As for `Nc1ncnc2c1ncn2[C@@H]1O[C@H](CO)C[C@H]1O` [3′-dA, 3′-deoxyadenosine], the “metabolism after administration, in vivo” value in data set [1] was “quickly deaminated by adenosine deaminase (ADA), and rapidly metabolized to an inactive metabolite”.
As for `C[C@H](NP(=O)(OC[C@@H]1CC(O)[C@H](n2cnc3c(N)ncnc32)O1)Oc1ccccc1)C(=O)OCc1ccccc1` (stereo partly drawn) [NUC-7738, 3′-deoxyadenosine-5′-O-[phenyl(benzyloxy-L-alaninyl)] phosphate], the PD-L1/CD81 values turned out to be 0.047 in data set [2] (setting [7]); 0.02 in data set [2] (setting [8]); 0.043 in data set [2] (setting [9]); 0.041 in data set [2] (setting [10]); 0.025 in data set [4] (setting [7]); 0.049 in data set [4] (setting [8]). In addition, the PD-L1/CD81 values in data set [4] (setting [9]) is on record as 0.023; in data set [4] (setting [10]), 0.029. In addition, in data set [2] (patient 001-019), the “time within which the reduction of the PD-L1/CD81 ratio is seen” value is no more than 24 h. In addition, in data set [3], the “decrease of mRNA” value is “up to 40%”. Moreover, the “reductions in Exo-PD-L1 compared to pre-treatment levels” value in data set [4] (preliminary studies, serum from 4 patients treated with NUC-7738) was no more than 50%. Besides, in data set [5], the “reduction of ExoPD-L1 protein” value was found to be 50%. Moreover, the “time dependent decrease of sPD-L1 expression in the media supernatant” value in data set [6] is reported as “up to 3 fold”.
